Reference: ChEMBL document CHEMBL6182905, “Fluorinated sulfonamide-flavonoid derivatives as novel Keap1-Nrf2 inhibitors: Potent induction of cytoprotective gene HO-1 in vivo” (Eur J Med Chem, 2025)
Calls of active or inactive are those of the source. The calls are words filed in the database; no cut-off is given here.

Columns and labels:
[1] = target: T1, Nuclear factor erythroid 2-related factor 2 (Mus musculus) (UniProt Q60795); assay: Activation of Nrf2 in LPS-stimulated mouse AML12 cells assessed as upregulation of HO-1 mRNA expression by measuring fold change at 10 uM incubated for 16 hrs relative to sulforaphane; format: cell-based; conditions: filed as activator
T1 sequence (whole entry): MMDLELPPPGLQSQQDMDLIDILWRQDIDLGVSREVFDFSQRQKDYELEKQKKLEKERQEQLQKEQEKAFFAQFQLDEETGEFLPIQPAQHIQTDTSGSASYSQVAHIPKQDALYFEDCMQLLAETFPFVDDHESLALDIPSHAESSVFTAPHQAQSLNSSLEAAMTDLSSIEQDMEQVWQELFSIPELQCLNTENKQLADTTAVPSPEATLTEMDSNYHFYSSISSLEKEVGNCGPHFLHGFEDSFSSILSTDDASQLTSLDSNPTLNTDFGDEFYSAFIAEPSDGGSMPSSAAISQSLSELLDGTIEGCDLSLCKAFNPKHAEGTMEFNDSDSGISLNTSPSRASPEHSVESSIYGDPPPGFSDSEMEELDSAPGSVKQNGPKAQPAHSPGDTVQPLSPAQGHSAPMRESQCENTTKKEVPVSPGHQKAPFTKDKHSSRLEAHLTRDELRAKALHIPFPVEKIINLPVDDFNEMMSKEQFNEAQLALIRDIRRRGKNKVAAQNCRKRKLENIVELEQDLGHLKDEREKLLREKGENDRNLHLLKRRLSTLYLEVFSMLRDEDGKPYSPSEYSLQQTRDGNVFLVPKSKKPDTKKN

[2] = target: T1, Nuclear factor erythroid 2-related factor 2 (Mus musculus); assay: Activation of Nrf2 in LPS-stimulated mouse AML12 cells assessed as upregulation of Akr1c1 mRNA expression by measuring fold change at 10 uM incubated for 16 hrs relative to sulforaphane; format: cell-based; conditions: filed as activator
[3] = target: T1, Nuclear factor erythroid 2-related factor 2 (Mus musculus); assay: Activation of Nrf2 in LPS-stimulated mouse AML12 cells assessed as upregulation of HO-1 protein level incubated for 16 hrs by Western blot analysis; format: cell-based; conditions: filed as activator, dose 0.5-10 µM
[4] = target: T1, Nuclear factor erythroid 2-related factor 2 (Mus musculus); assay: Activation of Nrf2 in LPS-stimulated mouse AML12 cells assessed as upregulation of GCLM protein level incubated for 16 hrs by Western blot analysis; format: cell-based; conditions: filed as activator, dose 0.5-10 µM
[5] = Drug concentration in plasma of APAP-induced acute liver injury male C57BL/6 mouse model at 12.5 mg/kg, ip pre-administered with compound for 1 hr followed by APAP induction and measured after 12 hrs by Mass spectrometric analysis; format: ADME, organism-based
[6] = Drug concentration in liver of APAP-induced acute liver injury male C57BL/6 mouse model at 25 mg/kg, ip pre-administered with compound for 1 hr followed by APAP induction and measured after 12 hrs by Mass spectrometric analysis; format: ADME, organism-based; conditions: read-out: Ct
Mus musculus [7] = assay: Anti-inflammatory activity against APAP-induced male C57BL/6 mouse model of acute liver injury assessed as upregulation of HO-1 mRNA level in liver administered intraperitoneally and measured after 12 hrs by RT-qPCR analysis; format: functional, organism-based; conditions: dose 12.5-25 mg/kg, route ip
Mus musculus [8] = assay: Anti-inflammatory activity against APAP-induced male C57BL/6 mouse model of acute liver injury assessed as restoration of HO-1 protein level in liver at 12.5 to 25 mg/kg, ip measured after 12 hrs by Western blot analysis; format: functional, organism-based; conditions: dose 12.5-25 mg/kg
Mus musculus [9] = assay: Anti-inflammatory activity against APAP-induced male C57BL/6 mouse model of acute liver injury assessed as restoration of GCLM protein level in liver at 12.5 to 25 mg/kg, ip measured after 12 hrs by Western blot analysis; format: functional, organism-based; conditions: dose 12.5-25 mg/kg
Mus musculus [10] = assay: In vivo induction of Nrf2 nuclear translocation in APAP-induced male C57BL/6 mouse model of acute liver injury assessed as increase in nuclear Nrf2 level at 12.5 to 25 mg/kg, ip measured after 12 hrs by Western blot analysis; format: functional, organism-based; conditions: dose 12.5-25 mg/kg
Mus musculus [11] = assay: In vivo inhibition of Keap1/Nrf2 protein-protein interaction in APAP-induced male C57BL/6 mouse model of acute liver injury administered intraperitoneally and measured after 12 hrs by co-immunoprecipitation analysis; format: functional, organism-based; conditions: dose 12.5-25 mg/kg, route ip
Mus musculus [12] = assay: Hepatoprotective activity in APAP-induced male C57BL/6 mouse model of acute liver injury assessed as reduction in ALT level in liver at 12.5 to 25 mg/kg, ip measured after 12 hrs; format: functional, organism-based; conditions: dose 12.5-25 mg/kg
Mus musculus [13] = assay: Hepatoprotective activity in APAP-induced male C57BL/6 mouse model of acute liver injury assessed as reduction in AST level in liver at 12.5 to 25 mg/kg, ip measured after 12 hrs; format: functional, organism-based; conditions: dose 12.5-25 mg/kg
Mus musculus [14] = assay: Hepatoprotective activity in APAP-induced male C57BL/6 mouse model of acute liver injury assessed as attenuation of catalase (CAT) level in liver at 12.5 to 25 mg/kg, ip measured after 12 hrs; format: functional, organism-based; conditions: dose 12.5-25 mg/kg
Mus musculus [15] = assay: Hepatoprotective activity in APAP-induced male C57BL/6 mouse model of acute liver injury assessed as reduction in cell apoptosis in liver at 12.5 to 25 mg/kg, ip measured after 12 hrs by TUNEL assay; format: functional, organism-based; conditions: dose 12.5-25 mg/kg
Mus musculus [16] = assay: Anti-inflammatory activity in APAP-induced C57BL/6 mouse model of acute liver injury assessed as reduction in IL-6 mRNA level in liver at 12.5 to 25 mg/kg, ip measured after 12 hrs by ELISA; format: functional, organism-based; conditions: dose 12.5-25 mg/kg
Mus musculus [17] = assay: Anti-inflammatory activity in APAP-induced C57BL/6 mouse model of acute liver injury assessed as reduction in TNFalpha mRNA level in liver at 12.5 to 25 mg/kg, ip measured after 12 hrs by ELISA; format: functional, organism-based; conditions: dose 12.5-25 mg/kg
Mus musculus [18] = assay: Anti-inflammatory activity in APAP-induced C57BL/6 mouse model of acute liver injury assessed as reduction in IL-6 level in serum at 12.5 to 25 mg/kg, ip measured after 12 hrs by ELISA; format: functional, organism-based; conditions: dose 12.5-25 mg/kg
Mus musculus [19] = assay: Anti-inflammatory activity in APAP-induced C57BL/6 mouse model of acute liver injury assessed as reduction in TNFalpha level in serum at 12.5 to 25 mg/kg, ip measured after 12 hrs by ELISA; format: functional, organism-based; conditions: dose 12.5-25 mg/kg
[20] = Toxicity in C57BL/6J mouse assessed as histopathological change in cardiovascular tissue at 25 mg/kg, ip by H and E staining based analysis; format: organism-based; conditions: in vivo
[21] = Toxicity in C57BL/6J mouse assessed as histopathological change in respiratory tissue at 25 mg/kg, ip by H and E staining based analysis; format: organism-based; conditions: in vivo
[22] = Cmax in Sprague-Dawley rat at 1 mg/kg, iv; format: ADME, organism-based; conditions: in vivo
[23] = Tmax in Sprague-Dawley rat at 1 mg/kg, iv; format: ADME, organism-based; conditions: in vivo
[24] = Cmax in Sprague-Dawley rat at 10 mg/kg, po; format: ADME, organism-based; conditions: in vivo
[25] = Absolute oral bioavailability in Sprague-Dawley rat at 10 mg/kg; format: ADME, organism-based; conditions: in vivo
[26] = AUC (0 to t) last in Sprague-Dawley rat at 1 mg/kg, iv; format: ADME, organism-based; conditions: in vivo
Mus musculus [27] = assay: Hepatoprotective activity in APAP-induced Nrf2 knockout male C57BL/6 mouse model of acute liver injury assessed as effect on AST level in liver at 25 mg/kg, ip preadministered with compound followed by APAP induction and measured after 12 hrs; format: functional, organism-based

fold change (FC) [1]: 3.4 | fold change (FC) [2]: 1.8 | Activity [3]: Dose-dependent-effect | Activity [4]: Dose-dependent-effect | Cmax [22]: 1050 ng/mL | Tmax [23]: 10.2 min | Cmax [24]: 1300 ng/mL | bioavailability [25]: 19.9% | AUCt [26]: 3869 ng·h/mL
SMILES: COc1ccc(-c2cc(=O)c3ccc(NS(=O)(=O)c4ccc(F)cc4)cc3o2)cc1
concentration at 13 h [5]: 50 ng/mL | concentration at 13 h [6]: 485 ng/g | Activity (Mus musculus [7]): Dose-dependent-effect | Activity (Mus musculus [8]): Active | Activity (Mus musculus [9]): Active | Activity (Mus musculus [10]): Active | inhibition (Mus musculus [11]): Dose-dependent-effect | Activity (Mus musculus [12]): Active | Activity (Mus musculus [13]): Active | Activity (Mus musculus [14]): Active | Activity (Mus musculus [15]): Active | Activity (Mus musculus [16]): Active | Activity (Mus musculus [17]): Active | Activity (Mus musculus [18]): Active | Activity (Mus musculus [19]): Active | Activity [20]: Non-toxic | Activity [21]: Non-toxic | Activity (Mus musculus [27]): No effect
